Where “and” joins values, the source holds several entries; their conditions need not be identical. Identical values can stand only once.
What was measured:
[1] = test system: STAT3 phosphorylation (Tyr705) in A549 cells; assay: Phosphorylation inhibitory assay (western blotting); assay type: cell-based, Human; conditions: 24 h
Protocol: Several concentrations of FBNAF (final conc. 0, 0.2, 0.5 1.0, and 2.0 μM in medium containing 1% DMSO) were added to A549 cells, followed by incubation at 37℃ for 24 h. After harvesting, cells were lysed with Passive Lysis Buffer (Promega, Madison, WI, USA) containing 1% protease inhibitor and 1% phosphatase inhibitor. Cell protein was quantified using a Pierce BCA Protein Assay Kit (Thermo Scientific, Waltham, MA, USA). The samples (15 μg/lane) were loaded and separated on an sodium dodecyl sulfate (SDS) polyacrylamide gel. Western blotting was performed using primary antibodies against STAT3 (1:2000 dilution, #4904, Cell Signaling Technology, Danvers, MA, USA), pSTAT3(Tyr705) (1:2000 dilution, #9145, Cell Signaling Technology), and β-actin (1:5000 dilution, NB600-503, Novus Biologicals, Centennial, CO, USA), as well as anti-rabbit IgG HRP-conjugated antibody (1:3000 dilution, HAF008, R&D Systems, Minneapolis, MN, USA) as a secondary antibody. The western blot bands were detected using Chemi-Lumi One L (Nacalai Tesque) and analyzed using an Amersham imager 600 (Cytiva, Tokyo, Japan). To detect pSTAT3, Chemi-Lumi One Ultra (Nacalai Tesque) was used.

[2] = In vitro stability in mouse plasma; assay type: in vitro ADME, ddY mouse; conditions: 3 h incubation in mouse plasma, 37℃, normal-phase TLC
Protocol: [^18F]FBNAF (152 kBq, 20 μL) in 5% DMSO/PBS ( −) was incubated with ddY mouse plasma (180 μL) at 37℃ for 10, 60, 120, or 180 min. After protein removal using CH3CN (400 μL), the supernatant was filtered through a Cosmonice Filter W and analyzed by TLC (Rf = 0.4, ethyl acetate:hexane = 1:1), followed by radioactivity counting using a γ-counter (2480 Wizard^2, PerkinElmer Japan, Kanagawa, Japan; n = 3). The intact rate (%) was represented as the intact form relative to the total radioactivity.

A549 tumor-bearing mice [3] = assay: In vivo biodistribution; set-up: species or system BALB/c nude mice
Protocol: (§1) BALB/c nude mice (male, 4 weeks old) and ddY mice (male, 6 weeks old) were purchased from Japan SLC (Shizuoka, Japan) and given free access to food and water. All animal experiments were conducted according to Osaka Medical and Pharmaceutical University guidelines, and the study protocol was approved by the Institutional Experimental Animal Committee (Permission Number: 22-76, AP23-004). To prepare tumor-bearing mice, A549 cells (4 × 10^6 cells/mouse) suspended in culture medium (100 μL) were implanted subcutaneously into the right hind leg of each mouse. Animals with a tumor size of approximately 100 mm^3 (length × width^2 × 1/2) after inoculation with A549 cells were used for in vivo and ex vivo experiments.
(§2) [^18F]FBNAF (115-343 kBq, 100 μL) in 5% DMSO/PBS (−) was intravenously injected into mice. The animals were euthanized under isoflurane anesthesia at 10, 30, 60, and 120 min postinjection, and the tissues of interest were excised and weighed. Radioactivity was measured using a γ-counter. The accumulation of radioactivity was expressed as the percent injected dose per gram tissue (%ID/g) for all tissues excluding the stomach, in which accumulation was expressed as the percent injected dose per organ (%ID). For the blocking study, [^18F]FBNAF (115-360 kBq, 100 μL) in 5% DMSO/PBS (−) was intravenously coinjected with BP-1-102 (3.0 mg/kg, Selleck, Shanghai, China) into mice, and after 30 min, the accumulated radioactivity in the tumor, blood, and muscle were measured. Radioactivity was decay-corrected at the time of administration.

A549 tumor-bearing mice [4] = assay: In vivo blocking study with coinjected BP-1-102; set-up: species or system BALB/c nude mice
Protocol: as §1, §2

STAT3 = target: T1, STAT3 (Homo sapiens, UniProt P40763); assay: Ex vivo autoradiography and immunohistochemistry; assay type: in vivo, mouse; conditions: tumor sections, 30 min postinjection, A549 tumor-bearing mice
T1 construct: sections prepared from the excised tumors of A549 tumor-bearing mice at 30 min postinjection of [^18F]FBNAF; from tissue; host or cells: A549 (human lung cancer) xenograft tumour excised from tumour-bearing mice
T1 sequence (P40763 whole entry): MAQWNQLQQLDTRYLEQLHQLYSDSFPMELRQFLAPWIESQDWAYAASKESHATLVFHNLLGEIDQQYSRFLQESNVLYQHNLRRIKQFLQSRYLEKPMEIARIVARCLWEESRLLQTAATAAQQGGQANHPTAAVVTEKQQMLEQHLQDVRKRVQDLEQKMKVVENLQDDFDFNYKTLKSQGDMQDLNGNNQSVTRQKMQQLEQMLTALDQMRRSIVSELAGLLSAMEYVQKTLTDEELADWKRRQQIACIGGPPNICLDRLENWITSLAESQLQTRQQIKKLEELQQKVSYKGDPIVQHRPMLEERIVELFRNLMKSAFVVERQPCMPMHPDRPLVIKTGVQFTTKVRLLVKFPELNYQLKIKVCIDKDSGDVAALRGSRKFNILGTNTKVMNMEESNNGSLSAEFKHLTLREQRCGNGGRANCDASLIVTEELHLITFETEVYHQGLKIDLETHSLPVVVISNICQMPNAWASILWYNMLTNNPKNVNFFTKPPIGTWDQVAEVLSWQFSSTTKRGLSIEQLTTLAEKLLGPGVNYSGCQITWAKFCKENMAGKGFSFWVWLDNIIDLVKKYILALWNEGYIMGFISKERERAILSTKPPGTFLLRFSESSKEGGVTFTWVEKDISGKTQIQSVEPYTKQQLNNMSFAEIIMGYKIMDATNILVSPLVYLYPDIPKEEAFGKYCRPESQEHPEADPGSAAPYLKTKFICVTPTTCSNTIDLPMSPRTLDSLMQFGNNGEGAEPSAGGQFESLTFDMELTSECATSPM
Protocol: Tumors were excised 30 min after the intravenous injection of [^18F]FBNAF (3–6 MBq, 100 μL) and immediately frozen in OCT compound. The frozen tumor was cut into 10 µm thick sections using Cryotome and contacted with a phosphor screen in a cassette overnight. The screen was scanned using an Amersham Typhoon scanner (Cytiva), and the resulting images were analyzed using Image-Quant TL (Cytiva).
For immunohistochemistry, adjacent sections were fixed with cold acetone (− 20℃) for 10 min. After blocking using Blocking One Histo (Nacalai Tesque), the sections were incubated with antibodies against STAT3 (1:200 dilution, #4904) or pSTAT3(Tyr705) (1:200 dilution, #9145) overnight at 4℃. After a rinse, anti-rabbit IgG(H + L) CF555 (1:1000 dilution, SAB4600068, Sigma-Aldrich, St. Louis, MO, USA) was added, followed by incubation for 30 min at room temperature. Nuclear staining was performed by incubation with Hoechst 33,342 (Nacalai Tesque) for 10 min.

[5] = blocking group, coinjection of BP-1-102 3.0 mg/kg, 30 min
[6] = control group without BP-1-102, 30 min

## CC1CC2=C(O1)c1ccc(OCc3ccc(F)cc3)cc1C(=O)C2=O (centres unmarked) [FBNAF, 7-(4-Fluoro-benzyloxy)-2-methyl-2,3-dihydro-naphtho[1,2-b]furan-4,5-dione]
[1]; 0–2 μM
  change in total STAT3 expression: no significant change
[1]; 0.5 μM
  inhibition of pSTAT3 expression: 50%
[1]; 1.0 μM
  inhibition of pSTAT3 expression: 60%

## CC1CC2=C(O1)c1ccc(OCc3ccc([18F])cc3)cc1C(=O)C2=O (centres unmarked) [[^18F]FBNAF, 7-(4-[^18F]Fluoro-benzyloxy)-2-methyl-2,3-dihydro-naphtho[1,2-b]furan-4,5-dione]
[2]
  radioactivity in an intact form (intact rate): more than 85%
A549 tumor-bearing mice [3]; 10 min after i.v. injection
  Blood radioactivity: 1.0 ± 0.2 %ID/g
  Bone radioactivity: 2.1 ± 0.2 %ID/g
  Brain radioactivity: 1.9 ± 1.1 %ID/g
  Colon radioactivity: 0.8 ± 0.4 %ID/g
  Heart radioactivity: 2.3 ± 0.8 %ID/g
  Kidney radioactivity: 19.5 ± 7.7 %ID/g
  Liver radioactivity: 10.8 ± 2.8 %ID/g
  Lung radioactivity: 4.4 ± 1.0 %ID/g
  Muscle radioactivity: 2.1 ± 0.8 %ID/g
  Pancreas radioactivity: 6.3 ± 2.9 %ID/g
  Small intestine radioactivity: 11.6 ± 5.5 %ID/g
  Spleen radioactivity: 2.7 ± 0.7 %ID/g
  Stomach radioactivity: 0.6 ± 0.3 %ID
  Tumor radioactivity: 1.5 ± 0.3 %ID/g
  Tumor/blood ratio: 1.6 ± 0.3
  Tumor/muscle ratio: 0.8 ± 0.1
A549 tumor-bearing mice [3]; 30 min after i.v. injection
  Blood radioactivity: 1.0 ± 0.3 %ID/g
  Bone radioactivity: 2.3 ± 0.6 %ID/g
  Brain radioactivity: 0.8 ± 0.1 %ID/g
  Colon radioactivity: 0.7 ± 0.4 %ID/g
  Heart radioactivity: 1.5 ± 0.7 %ID/g
  Kidney radioactivity: 4.5 ± 1.2 %ID/g
  Liver radioactivity: 5.3 ± 1.9 %ID/g
  Lung radioactivity: 3.3 ± 2.0 %ID/g
  Muscle radioactivity: 0.6 ± 0.1 %ID/g
  Pancreas radioactivity: 1.1 ± 0.3 %ID/g
  Small intestine radioactivity: 38.3 ± 5.7 %ID/g
  Spleen radioactivity: 1.6 ± 0.5 %ID/g
  Stomach radioactivity: 3.6 ± 2.8 %ID
  Tumor radioactivity: 1.7 ± 0.4 %ID/g
  Tumor/blood ratio: 2.0 ± 1.0
A549 tumor-bearing mice [3]; 60 min after i.v. injection
  Blood radioactivity: 0.5 ± 0.1 %ID/g
  Bone radioactivity: 1.5 ± 0.5 %ID/g
  Brain radioactivity: 0.5 ± 0.0 %ID/g
  Colon radioactivity: 11.0 ± 3.5 %ID/g
  Heart radioactivity: 0.7 ± 0.1 %ID/g
  Kidney radioactivity: 0.9 ± 0.3 %ID/g
  Liver radioactivity: 2.2 ± 0.3 %ID/g
  Lung radioactivity: 1.2 ± 0.0 %ID/g
  Muscle radioactivity: 0.5 ± 0.2 %ID/g
  Pancreas radioactivity: 0.5 ± 0.1 %ID/g
  Small intestine radioactivity: 48.4 ± 7.4 %ID/g
  Spleen radioactivity: 0.9 ± 0.1 %ID/g
  Stomach radioactivity: 1.4 ± 1.4 %ID
  Tumor radioactivity: 0.9 ± 0.3 %ID/g
  Tumor/blood ratio: 2.0 ± 0.8
  Tumor/muscle ratio: 2.4 ± 1.2
A549 tumor-bearing mice [3]; 120 min after i.v. injection
  Blood radioactivity: 0.3 ± 0.0 %ID/g
  Bone radioactivity: 1.9 ± 0.2 %ID/g
  Brain radioactivity: 0.4 ± 0.1 %ID/g
  Colon radioactivity: 44.4 ± 16.3 %ID/g
  Heart radioactivity: 0.7 ± 0.2 %ID/g
  Kidney radioactivity: 0.5 ± 0.2 %ID/g
  Liver radioactivity: 1.6 ± 0.8 %ID/g
  Lung radioactivity: 1.0 ± 0.3 %ID/g
  Muscle radioactivity: 0.5 ± 0.1 %ID/g
  Pancreas radioactivity: 0.6 ± 0.1 %ID/g
  Small intestine radioactivity: 17.8 ± 2.2 %ID/g
  Spleen radioactivity: 0.8 ± 0.3 %ID/g
  Stomach radioactivity: 0.8 ± 1.0 %ID
  Tumor radioactivity: 0.9 ± 0.3 %ID/g
  Tumor/blood ratio: 2.6 and 2.6 ± 0.8
  Tumor/muscle ratio: 1.9 ± 0.9
A549 tumor-bearing mice [4]; [5]
  tumor-to-blood ratio: 1.1 ± 0.3
  tumor-to-muscle ratio: 2.3 ± 1.2
A549 tumor-bearing mice [4]; blocking group, coinjection of BP-1-102 3.0 mg/kg, 30 min after administration
  Tumor radioactivity: 1.0 ± 0.3 % ID/g
A549 tumor-bearing mice [4]; coinjection of BP-1-102 3.0 mg/kg, 30 min
  radioactivity in blood and muscle, effect of coinjection of the inhibitor: negligibly affected
A549 tumor-bearing mice [4]; [6]
  tumor-to-blood ratio: 2.0 ± 1.0
  tumor-to-muscle ratio: 2.6 ± 0.3
STAT3
  intratumoral radioactivity distribution versus STAT3 expression: almost corresponded to the STAT3 expression profile
